Experimental findings from patent US20220289732A1, “HETEROCYCLIC WDR5 INHIBITORS AS ANTI-CANCER COMPOUNDS” (NOVARTIS AG, priority 2019, published 2022) are described below.

In experiment [1] the test system is MV4-11 cells. As to the kind of experiment: MV4-11 6-day cell growth CTG (CellTiter-Glo) assay. Type of experiment: cell-based. As to conditions: Homo sapiens, MV4-11, 144 h, 6 days, read-out: (c) MLL/WDR5 cell proliferation assay//MLL/WDR5 proliferation MV4:11 Qualified AC50. The essentials:
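IC50 comes from a dose-response fit of % inhibition relative to DMSO controls, with viable cells measured by CellTiter-Glo luminescence. Compounds were tested over 12 points (1:3, starting at 50 μM final) on MV4-11 cells plated at 300/well and grown 6 days.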
Background: In ATP-based viability assays light output follows the ATP content of the culture.

For experiment [2], the target named is wild type MLL1 four-member complex (MLL1-4C) (Homo sapiens, UniProt P61964). As to the kind of experiment: MLL1 LC-MS assay (SAH production). Type of experiment: biochemical. The following applies: read-out: (b) MLL LCMS Peptide Val.v.1 Qualified AC50. The essentials: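 SAH formation, measured by LC-MS/MS after a TFA quench containing d4-SAH, was normalised to no-compound and no-enzyme controls and fitted to a dose-response curve for IC50. Reactions ran 120 min at rt (pH 8.0 Tris buffer) with final 30 nM MLL1 four-member complex, 2.5 μM SAM and 10 μM biotinylated H3[1-21] peptide, after a 20-min enzyme/SAM-compound preincubation.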

The target in experiment [3] is WDR5 (Homo sapiens, UniProt P61964). As to the kind of experiment: WDR5 HTRF binding assay. The following applies: read-out: (a) WDR5 HTRF Pep Val v.1[Inhibitor/IC50]Qualified AC50. The essentials:
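In this HTRF displacement format, biotinylated MLL1 WIN peptide (3762-3773, 20 nM) binds WDR5 (6 nM) in 25 mM Hepes pH 7.5 with 100 mM NaCl, 2 mM DTT and 0.1% BSA for 20 min at rt. Detection used streptavidin-APC/anti-His-Eu for 1 hr. IC50 came from dose-response fits of normalized signal; 15 nM biotin-PEG-His peptide served as counter assay.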

`CCOc1cc([C@H](C)N2CCc3c(cc(Cn4ccnc4C)cc3-n3nc(C)nc3C(F)F)C2=O)ncc1C#N` [Example 294]: the AC50 in experiment [1] and in experiment [2] was 10 to 1000 nM throughout. The IC50 in experiment [3] lay in the range of 10 to 1000 nM.
Regarding `CCOc1cc([C@H](C)N2CCc3c(CN(C)C)cc(Cn4ccnc4C)cc3C2=O)ncc1C#N` [Example 295], the AC50 in experiment [1] lay in the range of 1000 to 25000 nM; in experiment [2], 10 to 1000 nM. Moreover, the IC50 in experiment [3] fell in the range of 10 to 1000 nM.
For `CCOc1cc([C@H](C)N2CCc3c(cc(CCN(C)CC)cc3-c3cn(C)c(=O)cc3CC)C2=O)ncc1C#N` [Example 193, (S)-4-ethoxy-6-(1-(7-(2-(ethyl(methyl)amino)ethyl)-5-(4-ethyl-1-methyl-6-oxo-1,6-dihydropyridin-3-yl)-1-oxo-3,4-dihydroisoquinolin-2(1H)-yl)ethyl)nicotinonitrile], the AC50 in experiment [1] and in experiment [2] was 10 to 1000 nM in each case. The IC50 in experiment [3] was < 10 nM.
As to `CCOc1cc([C@H](C)N2CCc3c(cc(CCN4C[C@@H](O)[C@H]4C)cc3-c3ccc(F)nc3C)C2=O)ncc1C#N` [Example 217], the AC50 in experiment [1] and in experiment [2] was 10 to 1000 nM throughout. In experiment [3], the IC50 is < 10 nM.
Regarding `CCOc1cc([C@H](C)N2CCc3c(cc(CCN(C)CC)cc3-c3cc4ocnc4nc3C)C2=O)ncc1C#N` [Example 181, (S)-4-ethoxy-6-(1-(7-(2-(ethyl(methyl)amino)ethyl)-5-(5-methyloxazolo[4,5-b]pyridin-6-yl)-1-oxo-3,4-dihydroisoquinolin-2(1H)-yl)ethyl)nicotinonitrile], the AC50 in experiment [1] and in experiment [2] was 10 to 1000 nM throughout. Besides, the IC50 in experiment [3] is < 10 nM.
With `CCOc1cc([C@H](C)N2CCc3c(cc(CCN4CC[C@H]4C)cc3-c3ccc(F)nc3C)C2=O)ncc1C#N` [Example 235], the AC50 in experiment [1] and in experiment [2] was 10 to 1000 nM each time. For the same compound, in experiment [3], the IC50 is < 10 nM.
As to `CCOc1cc(CN2CCc3c(cc(Cn4ccnc4C)cc3-c3cn(C)nc3C)C2=O)ncc1C#N` [Example 263, 6-((5-(1,3-Dimethyl-1H-pyrazol-4-yl)-7-((2-methyl-1H-imidazol-1-yl)methyl)-1-oxo-3,4-dihydroisoquinolin-2(1H)-yl)methyl)-4-ethoxynicotinonitrile], the AC50 in experiment [1] and in experiment [2] was 10 to 1000 nM throughout. In addition, the IC50 in experiment [3] fell in the range of 10 to 1000 nM.
As for `CCOc1cc([C@H](C)N2CCc3c(cc(CCN(C)CC)cc3-c3ccn(C)c(=O)c3C(F)(F)F)C2=O)ncc1C#N` [Example 195, (S)-4-ethoxy-6-(1-(7-(2-(ethyl(methyl)amino)ethyl)-5-(1-methyl-2-oxo-3-(trifluoromethyl)-1,2-dihydropyridin-4-yl)-1-oxo-3,4-dihydroisoquinolin-2(1H)-yl)ethyl)nicotinonitrile], the AC50 in experiment [1] and in experiment [2] was 10 to 1000 nM each time. In addition, the IC50 in experiment [3] lay within 10 to 1000 nM.
In the case of `CNc1nccn1Cc1cc(CN2CC[C@@H](OC)C2)c2c(c1)C(=O)N([C@@H](C)c1cc(OC)c(F)cn1)CC2` [Example 36, 2-((S)-1-(5-fluoro-4-methoxypyridin-2-yl)ethyl)-5-(((R)-3-methoxypyrrolidin-1-yl)methyl)-7-((2-(methylamino)-1H-imidazol-1-yl)methyl)-3,4-dihydroisoquinolin-1(2H)-one], the AC50 in experiment [1] and in experiment [2] was 10 to 1000 nM each time. Further, the IC50 in experiment [3] was 10 to 1000 nM.
On to `CCOc1cc(CN2CCc3c(cc(CCN4C[C@@H](O)[C@H]4C)cc3-c3cn(C)c(=O)cc3C(F)(F)F)C2=O)ncc1C#N` [Example 224], for which the AC50 in experiment [1] and in experiment [2] was 10 to 1000 nM in each case. The IC50 in experiment [3] fell in the range of 10 to 1000 nM.
In the case of `CCOc1cc([C@@H](C)N2CCc3c(cc(CCN(C)CC)cc3-c3cc(C)cnc3C)C2=O)ncc1C#N` [Example 156, (R)-6-(1-(5-(2,5-dimethylpyridin-3-yl)-7-(2-(ethyl(methyl)amino)ethyl)-1-oxo-3,4-dihydroisoquinolin-2(1H)-yl)ethyl)-4-ethoxynicotinonitrile], the AC50 was in the range of 1000 to 25000 nM in experiment [1] and 10 to 1000 nM in experiment [2]. Besides, the IC50 in experiment [3] lay in the range of 10 to 1000 nM.
Regarding `CCOc1cc([C@H](C)N2CCc3c(cc(CCN(C)CC)cc3-c3cn(C)nc3C(F)F)C2=O)ncc1C#N` [Example 126, (S)-6-(1-(5-(3-(difluoromethyl)-1-methyl-1H-pyrazol-4-yl)-7-(2-(ethyl(methyl)amino)ethyl)-1-oxo-3,4-dihydroisoquinolin-2(1H)-yl)ethyl)-4-ethoxynicotinonitrile], the AC50 in experiment [1] and in experiment [2] was 10 to 1000 nM in each case. Also, the IC50 in experiment [3] is < 10 nM.
On to `CCN(C)CCc1cc2c(c(-c3cn(C)nc3C(F)F)c1)CCN(C(C)c1cnc(F)c(OC)c1)C2=O` (stereo not drawn) [Example 146, 5-(3-(difluoromethyl)-1-methyl-1H-pyrazol-4-yl)-7-(2-(ethyl(methyl)amino)ethyl)-2-(1-(6-fluoro-5-methoxypyridin-3-yl)ethyl)-3,4-dihydroisoquinolin-1(2H)-one], for which the AC50 in experiment [1] and in experiment [2] was 10 to 1000 nM in each case. In addition, the IC50 in experiment [3] lay in the range of 10 to 1000 nM.
As to `CCOc1cc([C@H](C)N2CCc3c(cc(Cn4ccnc4C)cc3-c3cn(C)nc3C)C2=O)nnc1C#N` (single isomer, unassigned) [Example 303], the AC50 in experiment [1] and in experiment [2] was < 10 nM each time. Further, the IC50 in experiment [3] was < 10 nM.
With `CNc1nccn1Cc1cc2c(c(-c3cc(CO)cnc3Cl)c1)CCN(Cc1cc(OC)c(F)cc1F)C2=O` [Example 61, 5-(2-chloro-5-(hydroxymethyl)pyridin-3-yl)-2-(2,4-difluoro-5-methoxybenzyl)-7-((2-(methylamino)-1H-imidazol-1-yl)methyl)-3,4-dihydroisoquinolin-1(2H)-one], the AC50 in experiment [1] and in experiment [2] was 10 to 1000 nM each time. The IC50 in experiment [3] fell in the range of 10 to 1000 nM.
With `CCOc1cc([C@H](C)N2CCc3c(cc(CCN(C)CC)cc3-c3cn(CC)c(=O)cc3C)C2=O)ncc1C#N` [Example 171, (S)-4-ethoxy-6-(1-(7-(2-(ethyl(methyl)amino)ethyl)-5-(1-ethyl-4-methyl-6-oxo-1,6-dihydropyridin-3-yl)-1-oxo-3,4-dihydroisoquinolin-2(1H)-yl)ethyl)nicotinonitrile], the AC50 in experiment [1] and in experiment [2] was 10 to 1000 nM in each case. For the same compound, in experiment [3], the IC50 was < 10 nM.
With `CCOc1cc([C@H](C)N2CCc3c(cc(CCN(C)CCO)cc3-c3cc(C)ncc3C)C2=O)ncc1C#N` [Example 250], the AC50 in experiment [1] and in experiment [2] was 10 to 1000 nM throughout. Besides, the IC50 in experiment [3] lay within 10 to 1000 nM.
On to `CNc1nccn1Cc1cc2c(c(-c3cc(CO)cnc3Cl)c1)CCN(Cc1ccc(F)c(C#N)c1)C2=O` [Example 69, 5-((5-(2-chloro-5-(hydroxymethyl)pyridin-3-yl)-7-((2-(methylamino)-1H-imidazol-1-yl)methyl)-1-oxo-3,4-dihydroisoquinolin-2(1H)-yl)methyl)-2-fluorobenzonitrile], for which the AC50 in experiment [1] and in experiment [2] was 10 to 1000 nM each time. For the same compound, the IC50 in experiment [3] is 10 to 1000 nM.
Take `CCOc1cc([C@H](C)N2CCc3c(cc(CCN(C)CC)cc3N3CC[C@H](O)C3)C2=O)ncc1C#N` [Example 210]: the values for the AC50 in experiment [1] and in experiment [2] were 1000 to 25000 nM and 10 to 1000 nM, respectively. In addition, the IC50 in experiment [3] lay within 10 to 1000 nM.
Take `CCOc1cc([C@H](C)N2CCc3c(cc(CCN(C)CC)cc3-c3ccc(N)nc3C)C2=O)ncc1C#N` [Example 122, (S)-6-(1-(5-(6-amino-2-methylpyridin-3-yl)-7-(2-(ethyl(methyl)amino)ethyl)-1-oxo-3,4-dihydroisoquinolin-2(1H)-yl)ethyl)-4-ethoxynicotinonitrile]: the AC50 in experiment [1] and in experiment [2] was 10 to 1000 nM in each case. For the same compound, the IC50 in experiment [3] was < 10 nM.
For `CNc1nccn1Cc1cc2c(c(-c3cc(CO)cnc3Cl)c1)CCN(Cc1ccc(F)c(F)c1)C2=O` [Example 70, 5-(2-chloro-5-(hydroxymethyl)pyridin-3-yl)-2-(3,4-difluorobenzyl)-7-((2-(methylamino)-1H-imidazol-1-yl)methyl)-3,4-dihydroisoquinolin-1(2H)-one], the AC50 in experiment [1] and in experiment [2] was 10 to 1000 nM each time. In addition, the IC50 in experiment [3] lay within 10 to 1000 nM.
Regarding `CNc1nccn1Cc1cc(CN2CC(F)C2)c2c(c1)C(=O)N(Cc1cc(OC)c(F)cn1)CC2` [Example 30, 2-((5-fluoro-4-methoxypyridin-2-yl)methyl)-5-((3-fluoroazetidin-1-yl)methyl)-7-((2-(methylamino)-1H-imidazol-1-yl)methyl)-3,4-dihydroisoquinolin-1(2H)-one], the AC50 in experiment [1] and in experiment [2] was 10 to 1000 nM throughout. Also, the IC50 in experiment [3] lay in the range of 10 to 1000 nM.
`CNc1nccn1Cc1cc(CN2CC[C@@H](F)C2)c2c(c1)C(=O)N([C@@H](C)c1cc(OC)c(F)cn1)CC2` [Example 16]: the AC50 in experiment [1] and in experiment [2] was 10 to 1000 nM throughout. Besides, the IC50 in experiment [3] was 10 to 1000 nM.
